According to patent publication US20150252022A1, “RETINOIC ACID RECEPTOR-RELATED ORPHAN RECEPTOR MODULATORS AND USES THEREOF” (INNOV17 LLC, priority 2014, published 2015):

Experiments:
Type in all cases: cell-based
Conditions in all cases: 72 h; human CD4+ T cells under TH17-polarizing conditions, 3 days, supernatant ELISA
IL-17F = experiment: Human TH17 Cytokine Inhibition as measured by ELISA (IL-17F)
Method: (§1) Peripheral blood mononuclear cells (PBMCs) were sourced from freshly prepared leukocyte enriched plasma (buffy coat) from healthy donors (New York Blood Center). PBMCs were isolated by density gradient centrifugation using Ficoll-Paque™ PLUS (GE Healthcare). Human CD4+ T cells were seeded into 96-well plates (5×10^4 cells/well) and activated with plate-bound anti-human (h)-CD3 antibody and soluble h-aCD28 (both at 1 ug/ml; eBioscience) and differentiated into TH17 cells with 20 ng/mL h-IL-6, 5 ng/mL h-TGF-β1, 10 ng/mL h-IL-23 (eBioscience) and 10 ng/mL IL-1β (Miltenyi Biotec) in serum-free TexMACS Medium (Miltenyi Biotec) supplemented with 1% Penicillin/Streptomycin (Lonza) for 3 days. CD4+ T cells propagated under TH17-polarizing conditions were cultured in the presence or absence of various concentrations of compounds with a final concentration of 0.1% DMSO. Supernatants were collected and stored at −20° C. until assayed for IL-17A, IL-17F and IL-21 levels by “Ready-Set-Go” ELISA kits (eBioscience) as per manufacturer's instructions. Endpoint absorbance was read at 450 nm using a microplate reader (Perkin Elmer).

IL-21 = experiment: Human TH17 Cytokine Inhibition as measured by ELISA (IL-21)
Method: as §1

IL-17A = experiment: Human TH17 Cytokine Inhibition as measured by ELISA (IL-17A)
Method: as §1

Cc1ccncc1-c1ccc2c(ccn2CC2CCN(C(=O)CCc3ccccc3)CC2)c1 [Example 123]
IC50 (IL-17F): < 10 µM
IC50 (IL-21): < 10 µM
IC50 (IL-17A): < 10 µM

CC1CC(CN2CCc3cc(-c4cn[nH]c4)ccc32)CN1C(=O)Cc1ccccc1 (stereo not drawn) [Example 25, 1-(4-((5-(1H-pyrazol-4-yl)indolin-1-yl)methyl)-2-methylpyrrolidin-1-yl)-2-phenylethanone]
IC50 (IL-17F): < 10 µM
IC50 (IL-21): < 10 µM
IC50 (IL-17A): < 10 µM

Cc1ccc(-c2ccc3c(ccn3CC3CCN(C(=O)CCc4ccccc4)CC3)c2)nc1 [Example 122]
IC50 (IL-17F): < 10 µM
IC50 (IL-21): < 10 µM
IC50 (IL-17A): < 10 µM

O=C(CCc1cnccn1)N1CCC(Cn2ccc3cc(-c4cn[nH]c4)ccc32)CC1 [Example 90, 1-(4-((5-(1H-pyrazol-4-yl)-1H-indol-1-yl)methyl)piperidin-1-yl)-3-(pyrazin-2-yl)propan-1-one]
IC50 (IL-17F): < 10 µM
IC50 (IL-21): < 10 µM
IC50 (IL-17A): > 10 µM

O=C(CC1CCCCC1)N1CCC(CN2CCCc3cc(-c4cn[nH]c4)ccc32)CC1 [Example 99, 1-(4-((6-(1H-pyrazol-4-yl)-3,4-dihydroquinolin-1(2H)-yl)methyl)piperidin-1-yl)-2-cyclohexylethanone]
IC50 (IL-17F): < 10 µM
IC50 (IL-21): > 10 µM
IC50 (IL-17A): < 10 µM

O=C(CCc1ccccc1)N1CCC(Cn2ccc3cc(-c4cncs4)ccc32)CC1 [Example 124]
IC50 (IL-17F): < 10 µM
IC50 (IL-21): < 10 µM
IC50 (IL-17A): < 10 µM

O=C(Cc1ccccc1)N1CCCC(CN2CCc3cc(-c4cn[nH]c4)ccc32)CC1 (stereo not drawn) [Example 55, 1-(4-((5-(1H-pyrazol-4-yl)indolin-1-yl)methyl)azepan-1-yl)-2-phenylethanone]
IC50 (IL-17F): < 10 µM
IC50 (IL-21): < 10 µM
IC50 (IL-17A): < 10 µM

Cn1cc(-c2ccc3c(ccn3CC3CCN(C(=O)CCc4ccccc4)CC3)c2)nn1 [Example 113, 1-(4-((5-(1-methyl-1H-1,2,3-triazol-4-yl)-1H-indol-1-yl)methyl)piperidin-1-yl)-3-phenylpropan-1-one]
IC50 (IL-17F): < 10 µM
IC50 (IL-21): < 10 µM
IC50 (IL-17A): < 10 µM

NC(=O)Cn1cc(-c2ccc3c(ccn3CC3CCN(C(=O)CCc4ccccc4)CC3)c2)cn1 [Example 119, 2-(4-(1-((1-(3-phenylpropanoyl)piperidin-4-yl)methyl)-1H-indol-5-yl)-1H-pyrazol-1-yl)acetamide]
IC50 (IL-17F): > 10 µM
IC50 (IL-21): < 10 µM
IC50 (IL-17A): > 10 µM

CC(C)C(=O)N1CCC(CN2CCc3cc(-c4cn[nH]c4)ccc32)C1 (stereo not drawn) [Example 15, 1-(3-((5-(1H-pyrazol-4-yl)indolin-1-yl)methyl)pyrrolidin-1-yl)-2-methylpropan-1-one]
IC50 (IL-17F): > 10 µM
IC50 (IL-21): < 10 µM
IC50 (IL-17A): > 10 µM

Cc1cc2cc(-c3cn[nH]c3)ccc2n1CC1CCN(C(=O)Cc2ccccc2)CC1 [Example 133, 1-(4-((2-methyl-5-(1H-pyrazol-4-yl)-1H-indol-1-yl)methyl)piperidin-1-yl)-2-phenylethanone]
IC50 (IL-17F): < 10 µM
IC50 (IL-21): < 10 µM
IC50 (IL-17A): < 10 µM

O=C(CCc1ccccc1F)N1CCC(Cn2ccc3cc(-c4cn[nH]c4)ccc32)CC1 [Example 95, 1-(4-((5-(1H-pyrazol-4-yl)-1H-indol-1-yl)methyl)piperidin-1-yl)-3-(2-fluorophenyl)propan-1-one]
IC50 (IL-17F): < 10 µM
IC50 (IL-21): < 10 µM
IC50 (IL-17A): < 10 µM

CC(C)CC(=O)N1CCC(CN2CCc3cc(-c4cn[nH]c4)ccc32)C1 (stereo not drawn) [Example 14, 1-(3-((5-(1H-pyrazol-4-yl)indolin-1-yl)methyl)pyrrolidin-1-yl)-3-methylbutan-1-one]
IC50 (IL-17F): < 10 µM
IC50 (IL-21): > 10 µM
IC50 (IL-17A): < 10 µM

O=C(CC1CCCCC1)N1CCC(CN2CCc3cc(-c4cn[nH]c4)ccc32)C1 (stereo not drawn) [Example 13, 1-(3-((5-(1H-pyrazol-4-yl)indolin-1-yl)methyl)pyrrolidin-1-yl)-2-cyclohexylethanone]
IC50 (IL-17F): < 10 µM
IC50 (IL-21): > 10 µM
IC50 (IL-17A): < 10 µM
